Experiments:
[1] = tested on: Wild oat; test: Postemergence herbicidal test; type: in vivo, Avena fatua; settings: Application rate 4.0 lb/A, postemergence spray, rated visually nineteen days later
Source text: (§1) Aluminum planting flats measuring 15.2 x 22.9 x 8.9 cm were filled to a depth of 7.6 cm with loamy sand soil, containing 50 parts per million (ppm) each of the commercial fungicide cis-N(trichloromethyl)thio -4-cyclohexane-l,2-dicarboximide (Captan®) and 17-17-17 fertilizer (percentages of N-P2O5-K2O) on a weight basis). Several rows were impressed across the width of each flat and a variety of seeds of both grass and broadleaf weed species were planted, one species per row. The weed species used are listed below:
(§2) The broad leaf species were seeded first, and the grasses were seeded four days later. Ample seeds of each species were planted to produce 20 to 50 seedlings per row after emergence, depending on the size of each plant.
(§3) Ten days after the grasses were seeded, the emerged seedlings of all species were sprayed with aqueous solutions of the test compounds. The solutions were prepared to such dilutions that a spray rate of 80 gallons per acre (750 liters per hectare) gave from 0.5 to 4.0 pounds of test compound per acre (0.56 to 4.48 kilograms per hectare) as desired for each test. Additional flats not treated at all were used as standards for measuring the extent of weed control in the treated flats. […]

[2] = tested on: Velvetleaf; test: Postemergence herbicidal test; type: in vivo, Abutilon theophrasti; settings: Application rate 4.0 lb/A, postemergence spray, rated visually nineteen days later
Source text: as §1, §2, §3

[3] = tested on: Pseudomonas aeruginosa; test: Minimum Inhibitory Concentration test in nutrient broth (bacterial); type: cell-based; set-up: key: + = Growth; - = No Growth
Method: (§4) A Minimum Inhibitory Concentration test with bacteria and fungus was performed in nutrient broth. The test compound was added to sterile broth at 0.1% (1000PPM) and diluted sequentially with sterile broth to yield required levels. One drop of an actively-growing 24-hour culture was added to each level and incubated for a period of 24 hours at a temperature of 30°C. At the end of the time period, an aliquot from each tube was placed on nutrient agar and observed for growth.

[4] = tested on: Mustard; test: Postemergence herbicidal test; type: in vivo, Brassica sp.; settings: Application rate 4.0 lb/A, postemergence spray, rated visually nineteen days later
Source text: as §1, §2, §3

[5] = tested on: Alternaria solani; test: Minimum Inhibitory Concentration test in nutrient broth (fungal); type: cell-based; set-up: key: + = Growth; - = No Growth
Method: as §4

[6] = tested on: Watergrass; test: Postemergence herbicidal test; type: in vivo, Echinochloa crusgalli; settings: Application rate 4.0 lb/A, postemergence spray, rated visually nineteen days later
Source text: as §1, §2, §3

[7] = tested on: Foxtail; test: Postemergence herbicidal test; type: in vivo, Setaria sp.; settings: Application rate 4.0 lb/A, postemergence spray, rated visually nineteen days later
Source text: as §1, §2, §3

[8] = tested on: Annual morning glory; test: Postemergence herbicidal test; type: in vivo, Ipomoea purpurea; settings: Application rate 4.0 lb/A, postemergence spray, rated visually nineteen days later
Source text: as §1, §2, §3

[9] = 62.5 PPM, buffered to pH 6.8, 24 hours at 30°C
[10] = 62.5 PPM, pH 4, 24 hours at 30°C
[11] = 125 PPM, buffered to pH 6.8, 24 hours at 30°C
[12] = 125 PPM, pH 4, 24 hours at 30°C
[13] = 250 PPM, buffered to pH 6.8, 24 hours at 30°C
[14] = 250 PPM, pH 4, 24 hours at 30°C
[15] = 500 PPM, buffered to pH 6.8, 24 hours at 30°C
[16] = 500 PPM, pH 4, 24 hours at 30°C
[17] = 1000 PPM, buffered to pH 6.8, 24 hours at 30°C
[18] = 1000 PPM, pH 4, 24 hours at 30°C

CS(=O)(=O)CC(Cl)C#N (centres unmarked) [Compound 1, 3-(methylsulfonyl)-2-chloropropanenitrile]
30%: Percent Control N [1]
-: Growth [3, 9] | Growth [3, 10] | Growth [3, 11] | Growth [3, 12] | Growth [3, 13] | Growth [3, 14] | Growth [3, 15] | Growth [3, 16] | Growth [3, 17] | Growth [3, 18] | Growth [5, 12] | Growth [5, 13] | Growth [5, 14] | Growth [5, 15] | Growth [5, 16] | Growth [5, 17] | Growth [5, 18]
75%: Percent Control D [2] | Percent Control J [7] | Percent Control A [8]
65%: Percent Control L [6]
40%: Percent Control E [4]
+: Growth [5, 9] | Growth [5, 10] | Growth [5, 11]

— patent publication EP0111413A1, “Novel sulfone, process for its preparation, composition containing it and use thereof” (priority 1982, dated 1984)
